From ChEMBL document CHEMBL4417633, “Inhibitory polypeptides specific to WNT inhibitors” (2017)
Activity calls are given as the source filed them. The rule behind the calls is not given here. Where a SMILES comes first, the peptide text is derived from it.

Experiments:
[1] = molecular target: T1, Dickkopf-related protein 1 (Homo sapiens) (UniProt O94907); experiment: Inhibition of biotin-labeled human recombinant DKK1 assessed as reduction in DKK1 interaction with LRP-6/Fc incubated overnight by chemiluminescence based Alpha-screen assay
T1 sequence (whole entry): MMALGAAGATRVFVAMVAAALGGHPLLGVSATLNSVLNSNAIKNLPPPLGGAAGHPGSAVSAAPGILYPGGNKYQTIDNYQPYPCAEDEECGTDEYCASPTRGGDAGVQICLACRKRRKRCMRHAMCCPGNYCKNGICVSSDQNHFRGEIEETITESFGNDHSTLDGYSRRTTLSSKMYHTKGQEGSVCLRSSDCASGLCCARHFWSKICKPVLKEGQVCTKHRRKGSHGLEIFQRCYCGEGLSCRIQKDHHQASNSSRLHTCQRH

[2] = molecular target: T2, Dickkopf WNT-signaling pathway inhibitor 1 (Rattus norvegicus) (UniProt A6I0Z0); experiment: Inhibition of biotin-labeled rat recombinant DKK1 assessed as reduction in DKK1 interaction with LRP-6/Fc incubated overnight by chemiluminescence based Alpha-screen assay
T2 sequence (whole entry): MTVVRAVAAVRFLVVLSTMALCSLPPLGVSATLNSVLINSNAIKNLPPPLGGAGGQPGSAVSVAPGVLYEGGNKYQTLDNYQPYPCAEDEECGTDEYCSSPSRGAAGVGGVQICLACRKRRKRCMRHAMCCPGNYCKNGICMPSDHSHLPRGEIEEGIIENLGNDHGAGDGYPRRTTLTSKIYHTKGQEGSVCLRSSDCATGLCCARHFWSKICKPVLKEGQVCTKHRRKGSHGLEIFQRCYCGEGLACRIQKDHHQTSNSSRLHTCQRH

[3] = molecular target: T3, Dickkopf-related protein 1 (Homo sapiens, UniProt O94907); experiment: Inhibition of human DKK1 in MC3T3E1/TetON-Wnt1/STF-Luc#5 cells assessed as DKK1 neutralizing activity by Wnt1-induced TCF/LEF luciferase reporter gene assay
T3 sequence (O94907 whole entry): T1 sequence (whole entry)

Row | Compound | inhibition [1] | inhibition [2] | IC50 [3] [nM]
1 | CC[C@H](C)[C@H](NC(=O)[C@H](CS)NC(=O)[C@H](CC(=O)O)NC(=O)[C@@H]1CCCN1C(=O)[C@H](Cc1ccccc1)NC(=O)CNC(=O)[C@H](CC(=O)O)NC(=O)[C@H](CS)NC(=O)[C@H](CCCNC(=N)N)NC(=O)[C@H](Cc1c[nH]c2ccccc12)NC(=O)[C@H](CCC(=O)O)NC(=O)[C@H](CCSC)NC(=O)[C@@H]1CCCN1C(=O)[C@H](Cc1ccc(O)cc1)NC(=O)[C@H](CS)NC(=O)[C@H](Cc1cnc[nH]1)NC(=O)[C@@H]1CCCN1C(=O)[C@H](Cc1cnc[nH]1)NC(=O)[C@H](CC(N)=O)NC(=O)[C@H](CCCNC(=N)N)NC(=O)[C@H](CS)NC(=O)[C@H](CCC(N)=O)NC(=O)[C@H](Cc1ccccc1)NC(=O)[C@H](Cc1ccc(O)cc1)NC(=O)[C@H](CO)NC(=O)[C@@H](NC(=O)[C@@H]1CCCN1C(=O)[C@@H](N)CS)C(C)C)C(=O)N[C@@H](CC(=O)O)C(=O)NCC(=O)N[C@@H](CO)C(=O)N[C@@H](CC(=O)O)C(=O)N[C@@H](CCC(=O)O)C(=O)N[C@@H](CCC(=O)O)C(=O)NCC(=O)N[C@@H](CS)C(=O)NCC(=O)NCC(=O)NCC(=O)NCC(=O)O (H-CPVSYFQCRNHPHCYPMEWRCDGFPDCIDGSDEEGCGGGG-OH) | Active | Active | 0.8 to 3
2 | CSCC[C@H](NC(=O)[C@@H]1CCCN1C(=O)[C@H](Cc1ccc(O)cc1)NC(=O)[C@H](CS)NC(=O)[C@H](Cc1cnc[nH]1)NC(=O)[C@@H]1CCCN1C(=O)[C@H](Cc1cnc[nH]1)NC(=O)[C@H](CC(N)=O)NC(=O)[C@H](CCCNC(=N)N)NC(=O)[C@H](CS)NC(=O)[C@H](CCC(N)=O)NC(=O)[C@H](Cc1ccccc1)NC(=O)[C@H](Cc1ccc(O)cc1)NC(=O)[C@H](CO)NC(=O)[C@H](CCC(=O)O)NC(=O)[C@@H]1CCCN1C(=O)[C@@H](N)CS)C(=O)N[C@@H](CCC(=O)O)C(=O)N[C@@H](Cc1c[nH]c2ccccc12)C(=O)N[C@@H](CCCNC(=N)N)C(=O)N[C@@H](CS)C(=O)N[C@@H](CC(=O)O)C(=O)NCC(=O)N[C@@H](Cc1ccccc1)C(=O)N1CCC[C@H]1C(=O)N[C@@H](CC(=O)O)C(=O)N[C@@H](CS)C(=O)N[C@H](C(=O)N[C@@H](CC(=O)O)C(=O)NCC(=O)N[C@@H](CO)C(=O)N[C@@H](CC(=O)O)C(=O)N[C@@H](CCC(=O)O)C(=O)N[C@@H](CC(C)C)C(=O)N[C@@H](CC(=O)O)C(=O)N[C@@H](CS)C(=O)NCC(=O)NCC(=O)NCC(=O)NCC(=O)O)C(C)C (H-CPESYFQCRNHPHCYPMEWRCDGFPDCVDGSDELDCGGGG-OH) | Active | Active | 0.8 to 3
3 | CC[C@H](C)[C@H](NC(=O)[C@H](CS)NC(=O)[C@H](CC(=O)O)NC(=O)[C@@H]1CCCN1C(=O)[C@H](Cc1ccccc1)NC(=O)CNC(=O)[C@H](CC(=O)O)NC(=O)[C@H](CS)NC(=O)[C@H](CCCNC(=N)N)NC(=O)[C@H](Cc1c[nH]c2ccccc12)NC(=O)[C@H](CCC(=O)O)NC(=O)[C@H](CCSC)NC(=O)[C@@H]1CCCN1C(=O)[C@H](Cc1ccc(O)cc1)NC(=O)[C@H](CS)NC(=O)[C@H](Cc1cnc[nH]1)NC(=O)[C@@H]1CCCN1C(=O)[C@H](Cc1cnc[nH]1)NC(=O)[C@H](CCCCN)NC(=O)[C@H](CCCNC(=N)N)NC(=O)[C@H](CS)NC(=O)[C@H](CCC(N)=O)NC(=O)[C@H](Cc1ccccc1)NC(=O)[C@H](Cc1ccc(O)cc1)NC(=O)[C@H](CO)NC(=O)[C@H](C)NC(=O)[C@@H]1CCCN1C(=O)[C@@H](N)CS)C(=O)N[C@@H](CC(=O)O)C(=O)NCC(=O)N[C@@H](CO)C(=O)N[C@@H](CC(=O)O)C(=O)N[C@@H](CCC(=O)O)C(=O)N[C@@H](CCC(=O)O)C(=O)N[C@@H](CCCNC(=N)N)C(=O)N[C@@H](CS)C(=O)NCC(=O)NCC(=O)NCC(=O)NCC(=O)O (H-CPASYFQCRKHPHCYPMEWRCDGFPDCIDGSDEERCGGGG-OH) | Active | Active | 0.8 to 3
4 | CSCC[C@H](NC(=O)[C@@H]1CCCN1C(=O)[C@H](Cc1ccc(O)cc1)NC(=O)[C@H](CS)NC(=O)[C@H](Cc1cnc[nH]1)NC(=O)[C@@H]1CCCN1C(=O)[C@H](Cc1cnc[nH]1)NC(=O)[C@H](CC(N)=O)NC(=O)[C@H](CCCNC(=N)N)NC(=O)[C@H](CS)NC(=O)[C@H](CCC(N)=O)NC(=O)[C@H](Cc1ccccc1)NC(=O)[C@H](Cc1ccc(O)cc1)NC(=O)[C@H](CO)NC(=O)[C@@H](NC(=O)[C@@H]1CCCN1C(=O)[C@@H](N)CS)C(C)C)C(=O)N[C@@H](CCC(=O)O)C(=O)N[C@@H](Cc1c[nH]c2ccccc12)C(=O)N[C@@H](CCCNC(=N)N)C(=O)N[C@@H](CS)C(=O)N[C@@H](CC(=O)O)C(=O)NCC(=O)N[C@@H](Cc1ccccc1)C(=O)N1CCC[C@H]1C(=O)N[C@@H](CC(=O)O)C(=O)N[C@@H](CS)C(=O)N[C@@H](CC(C)C)C(=O)N[C@@H](CC(=O)O)C(=O)N[C@@H](CCC(=O)O)C(=O)N[C@@H](CO)C(=O)N[C@@H](CC(=O)O)C(=O)N[C@@H](CCC(=O)O)C(=O)N[C@@H](CCCCN)C(=O)NCC(=O)N[C@@H](CS)C(=O)NCC(=O)NCC(=O)NCC(=O)NCC(=O)O (H-CPVSYFQCRNHPHCYPMEWRCDGFPDCLDESDEKGCGGGG-OH) | Active | Active | 0.8 to 3

Now from value to compound:

Row | inhibition [1] | inhibition [2] | IC50 [3] [nM] | Compound
5 | Active | Active | 0.8 to 3 | CSCC[C@H](NC(=O)[C@@H]1CCCN1C(=O)[C@H](Cc1ccc(O)cc1)NC(=O)[C@H](CS)NC(=O)[C@H](Cc1cnc[nH]1)NC(=O)[C@@H]1CCCN1C(=O)[C@H](Cc1cnc[nH]1)NC(=O)[C@H](Cc1ccc(O)cc1)NC(=O)[C@H](CCCNC(=N)N)NC(=O)[C@H](CS)NC(=O)[C@H](CCCCN)NC(=O)[C@H](Cc1ccccc1)NC(=O)[C@H](Cc1ccc(O)cc1)NC(=O)[C@H](CO)NC(=O)[C@H](C)NC(=O)[C@@H]1CCCN1C(=O)[C@@H](N)CS)C(=O)N[C@@H](CCC(=O)O)C(=O)N[C@@H](Cc1c[nH]c2ccccc12)C(=O)N[C@@H](CCCNC(=N)N)C(=O)N[C@@H](CS)C(=O)N[C@@H](CC(=O)O)C(=O)NCC(=O)N[C@@H](Cc1ccccc1)C(=O)N[C@@H](CO)C(=O)N[C@@H](CC(=O)O)C(=O)N[C@@H](CS)C(=O)N[C@H](C(=O)N[C@@H](CC(=O)O)C(=O)NCC(=O)N[C@@H](CO)C(=O)N[C@@H](CC(=O)O)C(=O)N[C@@H](CCC(=O)O)C(=O)N[C@@H](CCC(=O)O)C(=O)N[C@@H](C)C(=O)N[C@@H](CS)C(=O)NCC(=O)NCC(=O)NCC(=O)NCC(=O)O)C(C)C (H-CPASYFKCRYHPHCYPMEWRCDGFSDCVDGSDEEACGGGG-OH)
6 | Active | Active | 0.8 to 3 | CC[C@H](C)[C@H](NC(=O)[C@H](CS)NC(=O)[C@H](CC(=O)O)NC(=O)[C@@H]1CCCN1C(=O)[C@H](Cc1ccccc1)NC(=O)CNC(=O)[C@H](CC(=O)O)NC(=O)[C@H](CS)NC(=O)[C@H](CCCNC(=N)N)NC(=O)[C@H](Cc1c[nH]c2ccccc12)NC(=O)[C@H](CCC(=O)O)NC(=O)[C@H](CCSC)NC(=O)[C@@H]1CCCN1C(=O)[C@H](Cc1ccc(O)cc1)NC(=O)[C@H](CS)NC(=O)[C@H](Cc1cnc[nH]1)NC(=O)[C@@H]1CCCN1C(=O)[C@H](Cc1cnc[nH]1)NC(=O)[C@H](CC(N)=O)NC(=O)[C@H](CCCNC(=N)N)NC(=O)[C@H](CS)NC(=O)[C@H](CCCCN)NC(=O)[C@H](Cc1ccccc1)NC(=O)[C@H](Cc1ccc(O)cc1)NC(=O)[C@H](CO)NC(=O)[C@H](C)NC(=O)[C@@H]1CCCN1C(=O)[C@@H](N)CS)C(=O)N[C@@H](CC(=O)O)C(=O)NCC(=O)N[C@@H](CO)C(=O)N[C@@H](CC(=O)O)C(=O)N[C@@H](CCC(=O)O)C(=O)N[C@H](C(=O)N[C@@H](C)C(=O)N[C@@H](CS)C(=O)NCC(=O)NCC(=O)NCC(=O)NCC(=O)O)[C@H](C)O
7 | Active | Active | 0.8 to 3 | CC[C@H](C)[C@H](NC(=O)[C@H](CS)NC(=O)[C@H](CC(=O)O)NC(=O)[C@@H]1CCCN1C(=O)[C@H](Cc1ccccc1)NC(=O)CNC(=O)[C@H](CC(=O)O)NC(=O)[C@H](CS)NC(=O)[C@H](CCCNC(=N)N)NC(=O)[C@H](Cc1c[nH]c2ccccc12)NC(=O)[C@H](CCC(=O)O)NC(=O)[C@H](CCSC)NC(=O)[C@@H]1CCCN1C(=O)[C@H](Cc1ccc(O)cc1)NC(=O)[C@H](CS)NC(=O)[C@H](Cc1cnc[nH]1)NC(=O)[C@@H]1CCCN1C(=O)[C@H](CC(C)C)NC(=O)[C@H](CC(N)=O)NC(=O)CNC(=O)[C@H](CS)NC(=O)[C@H](CCC(N)=O)NC(=O)[C@H](Cc1ccccc1)NC(=O)[C@H](Cc1ccc(O)cc1)NC(=O)[C@H](CO)NC(=O)[C@H](C)NC(=O)[C@@H]1CCCN1C(=O)[C@@H](N)CS)C(=O)N[C@@H](CC(=O)O)C(=O)NCC(=O)N[C@@H](CO)C(=O)N[C@@H](CC(=O)O)C(=O)N[C@@H](CCC(=O)O)C(=O)N[C@@H](CCCCN)C(=O)NCC(=O)N[C@@H](CS)C(=O)NCC(=O)NCC(=O)NCC(=O)NCC(=O)O (H-CPASYFQCGNLPHCYPMEWRCDGFPDCIDGSDEKGCGGGG-OH)
